Here are results for one compound from patent US11253610B2, “Plant virus particles for delivery of antimitotic agents” (CASE WESTERN RESERVE UNIVERSITY, priority 2015, dated 2022).

For one experiment, the system named is Karpas 299 cells. Nature of the experiment: Cell viability assay (Alamar Blue). It is filed as cell-based, human. Conditions: 72 hours incubation, read-out: IC50 (drug concentration where half of the cells are killed). On the procedure:
Cell culture. Karpas 299 cells (ATCC) were maintained in RPMI-1640 at 37° C. in a 5% CO2 humidified atmosphere. The medium was supplemented with 20% (v/v) heat-inactivated fetal bovine serum (FBS), and 1% (v/v) penicillin-streptomycin. All reagents were obtained from Gibco.
Cell viability assay. Cells at a concentration of 10,000 cells/mL were seeded in a sterile, tissue culture-treated, 96-well clear bottom plate for 24 hours at 37° C. in a 5% CO2 humidified atmosphere. Cells were then incubated with fresh media with 0.02 nM to 200 nM VcMMAE for 72 hours. At 92 hours, Alamar Blue (ThermoFisher) was added, and cell viability was measured at 96 hours according to the manufacturer's instructions using a fluorescence plate reader with […].
To evaluate the efficacy of TMV-vcMMAE, cell viability assays were performed using Alamar Blue assay Alamar Blue reagent is primarily made of resazurin, a nontoxic cell permeable non-fluorescent blue molecule. […]
Karpas 299 cells were seeded for 24 hours and then incubated with free vcMMAE or TMV-MMAE for 72 hours. At 92 hours, Alamar Blue was added and the cells fluorescence was measured after 4 hours of incubation at 540 nm excitation and 610 nm emission. The results for both free vcMMAE and TMV-MMAE are plotted in FIG. 4, and the IC50 values were calculated. […]

For experiment [1] the following is noted: vary with assay set up, time course and cell lines used; read-out: IC50 values in the literature; cited from earlier work.

Numbered stars: 1 amine (or outer) side, 2 acyl side, 3 side chain; on linkers, the order of the positions; unused ones are H or OH. Square brackets hold non-standard residues; d marks the D form. Peptide text beside a SMILES is read from it. * marks the point of attachment. Dolaproine = CO[C@@H]([C@@H]1CCCN1)[C@@H](C)C(=O)O; Hexanoyl(6-maleimido) = O=C1C=CC(=O)N1CCCCCC(=O)*; Dil = CC[C@H](C)[C@H](NC)[C@@H](CC(=O)O)OC; PABC = O=C(OCc1ccc(N[*:1])cc1)[*:2]; X1 = C[C@@H](N*)[C@@H](O)c1ccccc1; Cit = NC(=O)NCCC[C@H](N)C(=O)O; NMeV = CN[C@H](C(=O)O)C(C)C

As for `CC[C@H](C)[C@@H]([C@@H](CC(=O)N1CCC[C@H]1[C@H](OC)[C@@H](C)C(=O)N[C@H](C)[C@@H](O)c1ccccc1)OC)N(C)C(=O)[C@@H](NC(=O)[C@H](C(C)C)N(C)C(=O)OCc1ccc(NC(=O)[C@H](CCCNC(N)=O)NC(=O)[C@@H](NC(=O)CCCCCN2C(=O)C=CC2=O)C(C)C)cc1)C(C)C` [vcMMAE, valine-citrulline monomethyl auristatin E] ({Hexanoyl(6-maleimido)}-V[Cit][PABC][NMeV]V[Dil][Dolaproine]-X1), the IC50 in the experiment on Karpas 299 cells was approximately 25.8 nM; in experiment [1] it was approximately 5 nM.
